The values below come from ChEMBL document CHEMBL1137872, “Potent and selective P2-P3 ketoamide inhibitors of cathepsin K with good pharmacokinetic properties via favorable P1', P1, and/or P3 substitutions” (Bioorg Med Chem Lett, 2004).

The structures appear in SMILES notation. Converted amounts (≈) assume the structure as drawn. Bounds are passed on as bounds.

One data set concerns the target T1, Cathepsin K (Homo sapiens, UniProt P43235).
T1 sequence (P43235 whole entry): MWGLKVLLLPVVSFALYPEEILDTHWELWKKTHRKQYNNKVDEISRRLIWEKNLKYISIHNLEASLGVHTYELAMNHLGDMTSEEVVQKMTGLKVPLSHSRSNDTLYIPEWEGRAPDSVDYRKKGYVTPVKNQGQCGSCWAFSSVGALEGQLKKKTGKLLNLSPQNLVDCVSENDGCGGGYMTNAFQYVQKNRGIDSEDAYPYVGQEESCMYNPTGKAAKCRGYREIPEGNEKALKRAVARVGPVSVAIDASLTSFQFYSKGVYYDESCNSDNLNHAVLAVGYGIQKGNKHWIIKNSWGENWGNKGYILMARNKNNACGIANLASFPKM
The data set is described as follows: Inhibition of 10 uM Cbz-Phe-Arg-AMC binding to human cathepsin K in fluorescence assay.

Another data set concerns the target Procathepsin L (Homo sapiens, UniProt P07711). The data set is described as follows: Inhibition of 5 uM Cbz-Phe-Arg-AMC human cathepsin L in fluorescence assay.
Data set [1] deals with T2, Cathepsin (L and K) (Homo sapiens) (UniProt P43235+P07711). Description: (§1) Relative binding to human cathepsins L and K. The data set is classed as protein assay.
Another data set deals with T3, Pro-cathepsin H (Homo sapiens, UniProt P09668).
T3 sequence (P09668 whole entry): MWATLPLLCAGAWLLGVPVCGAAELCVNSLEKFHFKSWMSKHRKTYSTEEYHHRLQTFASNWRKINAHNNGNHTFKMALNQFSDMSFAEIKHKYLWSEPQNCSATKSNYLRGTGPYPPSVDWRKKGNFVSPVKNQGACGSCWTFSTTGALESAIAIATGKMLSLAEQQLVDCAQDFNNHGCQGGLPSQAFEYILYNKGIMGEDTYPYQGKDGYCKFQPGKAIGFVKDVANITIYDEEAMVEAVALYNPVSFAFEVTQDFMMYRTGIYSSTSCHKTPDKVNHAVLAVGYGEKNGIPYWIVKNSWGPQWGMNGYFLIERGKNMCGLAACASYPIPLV
The data set is described as follows: Inhibition of 50 uM L-Arg-beta-naphthalamide binding to human cathepsin H in fluorescence assay.

Another data set has as its target Cathepsin S (Homo sapiens, UniProt P25774). Description: Inhibition of 10 uM Cbz-Val-Val-Arg-AMC binding to human cathepsin S in fluorescence assay.
Data set [2] addresses Cathepsin (H and K) (Homo sapiens) (UniProt P09668+P43235). Description: Relative binding affinity for human cathepsins H and K. It counts as protein assay.
The target in another data set is Cathepsin B (Homo sapiens, UniProt P07858). Description: Inhibition of 10 uM Cbz-Phe-Arg-AMC binding to human cathepsin B in fluorescence assay.
The target of data set [3] is T4, Pro-cathepsin H (Homo sapiens) (UniProt P09668).
T4 sequence (whole entry): T3 sequence (P09668 whole entry)
Description: Relative binding to human cathepsins H and K.

The target of data set [4] is Cathepsin (S and K) (Homo sapiens) (UniProt P25774+P43235). Description: Relative binding to human cathepsins S and K. It counts as protein assay.
A short description of data set [5]: Steady state volume of distribution in rats. The note with it: rat, in vivo; read-out: Vss. The data set is classed as ADME, organism-based.
The nature of data set [6]: Apparent permeability coefficient for apical to basolateral flux was determined by Madin-Darby canine kidney cell monolayer transport assay. It counts as ADME, cell-based, Canis lupus familiaris. Particulars: dog, MDCK.
The nature of data set [7]: Terminal half-life was determined in rats upon intravenous administration as a solution in 30% hydroxypropyl-beta-cyclodextrin, pH = 3.5. The note with it: rat, in vivo. The data set is classed as ADME, organism-based.
Data set [8] has as its target T2, Cathepsin (L and K) (Homo sapiens). Described as §1. The data set is classed as protein assay. The source holds these as a separate data set.
Data set [9] can be described thus: Oral bioavailability in rat. It counts as ADME, organism-based. The note with it: in vivo.
Data set [10] in a line: Total clearance in rats. The data set is classed as ADME, organism-based. The note with it: rat, in vivo.
Data set [11] can be described thus: Equilibrium solubility in fasted state-simulated intestinal fluid was determined […]. It counts as ADME, Rattus norvegicus. Particulars: read-out: FS-SIF.
The nature of data set [12]: Terminal half-life was determined in rats upon intravenous administration as a solution in 40% hydroxypropyl-beta-cyclodextrin, pH = 5.1. It counts as ADME, organism-based. The note with it: rat, in vivo.
Data set [13] is described as follows: Terminal half-life was determined in rats upon intravenous administration as a solution in 30% hydroxypropyl-beta-cyclodextrin, pH = 5.1. The data set is classed as ADME, organism-based. Particulars: rat, in vivo.

Procathepsin L, sequence (P07711 whole entry): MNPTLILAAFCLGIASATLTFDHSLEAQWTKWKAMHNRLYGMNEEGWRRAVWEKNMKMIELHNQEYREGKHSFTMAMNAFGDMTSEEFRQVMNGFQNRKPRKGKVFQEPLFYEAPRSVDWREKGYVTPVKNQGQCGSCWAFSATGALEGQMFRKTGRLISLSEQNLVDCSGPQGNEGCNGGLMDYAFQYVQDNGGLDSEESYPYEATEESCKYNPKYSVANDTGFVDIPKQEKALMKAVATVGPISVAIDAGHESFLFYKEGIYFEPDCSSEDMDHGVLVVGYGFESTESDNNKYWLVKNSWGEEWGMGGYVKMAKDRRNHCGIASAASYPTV
T2 sequence (P07711 whole entry, looked up, one chain of several): as the sequence (P07711 whole entry) above
Cathepsin S, sequence (P25774 whole entry): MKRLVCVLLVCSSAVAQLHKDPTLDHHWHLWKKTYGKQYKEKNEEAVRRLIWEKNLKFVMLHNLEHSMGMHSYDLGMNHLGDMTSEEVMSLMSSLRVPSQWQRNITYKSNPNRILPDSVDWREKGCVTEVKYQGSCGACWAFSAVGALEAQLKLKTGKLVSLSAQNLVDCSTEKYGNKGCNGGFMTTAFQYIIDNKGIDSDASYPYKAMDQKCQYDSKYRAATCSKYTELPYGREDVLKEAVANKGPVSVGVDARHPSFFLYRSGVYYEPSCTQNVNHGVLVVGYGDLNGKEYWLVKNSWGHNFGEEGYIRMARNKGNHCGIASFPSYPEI

Take `CCCC[C@H](NC(=O)OCC(C)(C)Cc1ccccc1)C(=O)C(=O)N[C@H](C)c1ccccc1`: the half-maximal inhibitory concentration (IC50) was 13 nM at Cathepsin K; 1200 nM at Procathepsin L; more than 5000 nM at Pro-cathepsin H; 20 nM at Cathepsin S; more than 5000 nM on Cathepsin B. Further, the Ratio in data set [1] was 92; in data set [2], more than 380; in [3], more than 380; in [4], 1.5.

For the molecule `CCCC[C@H](NC(=O)OCC1(Cc2ccccc2)CCC1)C(=O)C(=O)N[C@H](C)c1ccccc1`, the IC50 at Cathepsin K was 8.5 nM; on Procathepsin L it was 1300 nM; on Pro-cathepsin H, more than 5000 nM; at Cathepsin S it was 20 nM; at Cathepsin B, 3600 nM. In addition, the Ratio in data set [1] was 150; in [2], more than 580; in data set [3] it was more than 580; in data set [4] it was 2.4.

Take `CN(C)S(=O)(=O)NCCCC[C@H](NC(=O)OCC1(Cc2ccc(F)cc2)CCC1)C(=O)C(=O)NCc1cccnc1`: the IC50 on Cathepsin K was 40 nM; at Procathepsin L it was more than 5000 nM; on Pro-cathepsin H, more than 5000 nM; on Cathepsin S it was 130 nM; at Cathepsin B, more than 5000 nM. The Vd in data set [5] amounted to 0.42 L/kg. The Ratio in data set [1] was more than 120; in data set [8], more than 120; in data set [3], more than 120; in [4], 3.2. In addition, the Papp A→B in [6] came out at 6.9 ×10⁻⁶ cm/s. In [7], this molecule had a half-life of 4.5 h. The molecule also yielded a bioavailability in data set [9] of 18%. The same molecule showed a clearance in data set [10] of 9.6 mL/min/kg. Also, the solubility thermodynamic in [11] is 30 µg/mL (≈ 50.7 µM).

In turn, `CCCC[C@H](NC(=O)OC1(Cc2ccccc2)CCC1)C(=O)C(=O)N[C@H](C)c1ccccc1` registered an IC50 at Cathepsin K of 710 nM.

In turn, `C[C@@H](NC(=O)C(=O)[C@H](CCCCNC(=O)N1CCOCC1)NC(=O)OCC1(Cc2ccc(F)cc2)CCC1)c1ccccc1` registered a half-life in data set [12] of 1.83 h. Moreover, the 50% inhibitory concentration (IC50) was 13 nM at Cathepsin K; 680 nM on Procathepsin L; more than 5000 nM on Pro-cathepsin H; 27 nM on Cathepsin S; more than 5000 nM at Cathepsin B. The Vd in data set [5] stood at 4.2 L/kg. In addition, in data set [6], the Papp A→B is 47 ×10⁻⁶ cm/s. The same molecule showed a bioavailability in data set [9] of 38%. In addition, the clearance in data set [10] came to 43 mL/min/kg. The Ratio in [4] was determined as 2.1. In addition, the solubility thermodynamic in data set [11] was 90 µg/mL (≈ 147 µM).

On to `CCCC[C@H](NC(=O)OCC1(Cc2ccccc2)CCCC1)C(=O)C(=O)N[C@H](C)c1ccccc1`, for which the IC50 at Cathepsin K is 26 nM; at Procathepsin L it was 2200 nM; at Pro-cathepsin H it was more than 5000 nM; on Cathepsin S, 11 nM; at Cathepsin B, more than 5000 nM. Further, the Ratio is 85 in data set [1], more than 190 in data set [2], more than 190 in [3] and 0.4 in data set [4].

On to `CCCC[C@H](NC(=O)OCC1(CCCc2ccccc2)CCC1)C(=O)C(=O)N[C@H](C)c1ccccc1`, for which the IC50 is 17 nM at Cathepsin K; 1300 nM at Procathepsin L; more than 2000 nM at Pro-cathepsin H; 17 nM at Cathepsin S; more than 2000 nM on Cathepsin B. For the same molecule, the Ratio in [1] was more than 120; in data set [8], 76; in data set [3], more than 120; in data set [4], 1.

As for `C[C@@H](NC(=O)C(=O)[C@H](CCCCNC(=O)N1CCOCC1)NC(=O)OCC1(Cc2ccncc2)CCC1)c1ccccc1`, in data set [12], the half-life is 1.23 h. In addition, on Cathepsin K, the IC50 is 7.6 nM. The Vd in data set [5] was determined as 0.66 L/kg. Besides, in data set [6], the Papp A→B was 1.4 ×10⁻⁶ cm/s. The molecule further had a bioavailability in [9] of 8.1%. The molecule further registered a clearance in [10] of 27 mL/min/kg. Further, the solubility thermodynamic in data set [11] was 300 µg/mL (≈ 505 µM).

With `CCCC[C@H](NC(=O)OC(CC)(CC)Cc1ccccc1)C(=O)C(=O)N[C@H](C)c1ccccc1`, on Cathepsin K, the 50% inhibitory concentration (IC50) is 150 nM.

In turn, `CCCC[C@H](NC(=O)OC1(Cc2ccccc2)CCCCC1)C(=O)C(=O)N[C@H](C)c1ccccc1` registered a half-maximal inhibitory concentration (IC50) on Cathepsin K of 210 nM.

On Cathepsin K, `CCCC[C@H](NC(=O)OC(C)(C)Cc1ccccc1)C(=O)C(=O)N[C@H](C)c1ccccc1` displayed a 50% inhibitory concentration (IC50) of 630 nM.

With `CCCC[C@H](NC(=O)OC1(Cc2ccccc2)CCCC1)C(=O)C(=O)N[C@H](C)c1ccccc1`, the IC50 is 25 nM at Cathepsin K; 3000 nM against Procathepsin L; more than 12000 nM at Pro-cathepsin H; 430 nM on Cathepsin S; more than 12000 nM on Cathepsin B. Besides, the values for the Ratio in data set [1], in data set [2] and in data set [4] were 120, more than 480 and 17, respectively.

Turning to `CCCC[C@H](NC(=O)OCC(C)(C)c1ccccc1)C(=O)C(=O)N[C@H](C)c1ccccc1`, the IC50 was 65 nM on Cathepsin K; 3000 nM against Procathepsin L; more than 5000 nM on Pro-cathepsin H; 270 nM at Cathepsin S; 5000 nM on Cathepsin B. For the same molecule, the Ratio was 46 in [1], more than 77 in [2] and 4.2 in [4].

On Cathepsin K, `CNC(=O)NCCCC[C@H](NC(=O)OCC1(Cc2c(F)cccc2F)CCC1)C(=O)C(=O)N[C@H](C)c1ccccc1` displayed a half-inhibitory concentration (IC50) of 24 nM. Besides, the Vd in [5] stood at 1.6 L/kg. Also, the half-life in [13] was found to be 1.57 h. Besides, the apparent permeability from apical to basolateral (Papp A→B) in [6] is 14 ×10⁻⁶ cm/s. Also, the bioavailability in data set [9] amounted to 15%. The same molecule came in with a clearance in data set [10] of 33 mL/min/kg. For the same molecule, the solubility thermodynamic in [11] is 20 µg/mL (≈ 34.9 µM).

On to `CCCC[C@H](NC(=O)OCC1(Cc2ccc(F)cc2)CCC1)C(=O)C(=O)Nc1ccn[nH]1`, for which the half-inhibitory concentration (IC50) is 0.83 nM on Cathepsin K; 330 nM at Procathepsin L; more than 500 nM at Pro-cathepsin H; 5.2 nM at Cathepsin S; more than 500 nM on Cathepsin B. In data set [13], this molecule gave a half-life of 2 h. Further, the Ratio is more than 600 in data set [1], 390 in [8], more than 600 in data set [3] and 6.3 in data set [4]. The apical-to-basolateral permeability (Papp A→B) in [6] is 15 ×10⁻⁶ cm/s. In addition, in [9], the bioavailability stood at 31%. In data set [10], the clearance was determined as 45 mL/min/kg. Also, the solubility thermodynamic in data set [11] is 150 µg/mL (≈ 337 µM).

Regarding `CCCC[C@H](NC(=O)OCC1(CCc2ccccc2)CCC1)C(=O)C(=O)N[C@H](C)c1ccccc1`, the IC50 on Cathepsin K is 24 nM; at Procathepsin L, 1600 nM; at Pro-cathepsin H, more than 2000 nM; at Cathepsin S, 34 nM; at Cathepsin B it was more than 2000 nM. For the same molecule, the Ratio in [1] was 67; in data set [2], more than 83; in data set [4] it was 1.4.

Broadly, the IC50 is the concentration needed to halve the response being measured. As a reminder, the Papp A→B is the apparent permeability from the apical to the basolateral side of a cell layer. The half-life is the time in which the quantity being followed falls by half. A lower half-life goes with fast loss. For orientation: bioavailability means the share of a dose that reaches the circulation, judged against a reference dose that is usually intravenous. The term clearance denotes a measure of how efficiently the substance is removed, as volume per time. Lower therefore signals inefficient removal.
